Reference: ChEMBL document CHEMBL5241080, “Quinoline anticancer agents active on DNA and DNA-interacting proteins: From classical to emerging therapeutic targets” (Eur J Med Chem, 2021)

Assays:
RPMI-8226 = assay: Antiproliferative activity against human RPMI-8226 cells; format: functional, cell-based
A549 [1] = assay: Antiproliferative activity against human A549 cells; format: functional, cell-based
NCI-H929 = assay: Antiproliferative activity against human NCI-H929 cells; format: functional, cell-based
U-266 = assay: Antiproliferative activity against human U-266 cells; format: functional, cell-based
[2] = biological target: Protein deacetylase HDAC6 (Homo sapiens, UniProt Q9UBN7); assay: Inhibition of HDAC6 (unknown origin)
MIA PaCa-2 = assay: Antiproliferative activity against human MIA PaCa-2 cells; format: functional, cell-based
CFPAC-1 = assay: Antiproliferative activity against human CFPAC-1 cells; format: functional, cell-based
HepG2 [3] = assay: Antiproliferative activity against human HepG2 cells; format: functional, cell-based
[4] = biological target: Histone-lysine N-methyltransferase SMYD3 (Homo sapiens, UniProt Q9H7B4); assay: Inhibition of SMYD3 (unknown origin)
HPAC = assay: Antiproliferative activity against human HPAC cells; format: functional, cell-based
HCT-116 [5] = assay: Antiproliferative activity against human HCT-116 cells; format: functional, cell-based
Histone deacetylase = assay: Inhibition of HDAC (unknown origin); format: protein assay, Homo sapiens
HeLa [6] = assay: Antiproliferative activity against human HeLa cells incubated for 24 hrs by WST-1 assay; format: functional, cell-based
K-562R = assay: Cytotoxicity against human K-562R cells by MTT assay; format: functional
SW480 = assay: Cytotoxicity against human SW480 cells by MTT assay; format: functional
MCF7 [7] = assay: Cytotoxicity against human MCF7 cells by MTT assay; format: functional
HeLa [8] = assay: Cytotoxicity against human HeLa cells by MTT assay; format: functional
C-33-A = assay: Cytotoxicity against human C-33-A cells by MTT assay; format: functional
SW-620 = assay: Cytotoxicity against human SW620 cells by MTT assay; format: functional
[9] = Cytotoxicity against human CAL1 cells by MTT assay; format: functional
SK-MEL-28 = assay: Antiproliferative activity against human SK-MEL-28 cells; format: functional, cell-based
[10] = Antiproliferative activity against human A375P cells; format: functional, cell-based
SK-MEL-5 = assay: Antiproliferative activity against human SK-MEL-5 cells; format: functional, cell-based
U-937 = assay: Antiproliferative activity against human U-937 cells assessed as reduction cell viability incubated for 48 hrs by MTT assay; format: functional, cell-based; conditions: U-937, 48 h
A549 [11] = assay: Cytotoxicity against human A549 cells incubated for 72 hrs by MTT assay; format: functional, cell-based; conditions: A549, 72 h
[12] = biological target: Hepatocyte growth factor receptor (Homo sapiens, UniProt P08581); assay: Inhibition of c-MET (unknown origin)
HCT-116 [13] = assay: Cytotoxicity against human HCT-116 cells assessed as inhibition of cell growth incubated for 72 hrs by MTT assay; format: functional, cell-based; conditions: HCT-116, 72 h
HeLa [14] = assay: Antiproliferative activity against human HeLa cells; format: functional, cell-based
WI-38 = assay: Antiproliferative activity against human WI-38 cells; format: functional, cell-based
U2OS = assay: Antiproliferative activity against human U2OS cells; format: functional, cell-based
HT-1080 [15] = assay: Antiproliferative activity against human HT-1080 cells; format: functional, cell-based
MGC-803 = assay: Cytotoxicity against human MGC-803 cells; format: functional, cell-based
HepG2 [16] = assay: Cytotoxicity against human HepG2 cells; format: functional, cell-based
T-24 = assay: Cytotoxicity against human T24 cells; format: functional, cell-based
NCI-H460 = assay: Cytotoxicity against human NCI-H460 cells; format: functional, cell-based
PC-3 = assay: Antiproliferative activity against human PC-3 cells; format: functional, cell-based
[17] = biological target: DNA (cytosine-5)-methyltransferase 1 (Homo sapiens, UniProt P26358); assay: Inhibition of his-tagged human DNMT1 by scintillation counter analysis
NCI-H1299 = assay: Antiproliferative activity against human NCI-H1299 cells assessed as reduction cell viability incubated for 48 hrs by MTT assay; format: functional, cell-based; conditions: NCI-H1299, 48 h
HeLa [18] = assay: Antiproliferative activity against human HeLa cells assessed as reduction cell viability incubated for 48 hrs by MTT assay; format: functional, cell-based
HL-60 = assay: Antiproliferative activity against human HL-60 cells assessed as reduction cell viability incubated for 48 hrs by MTT assay; format: functional, cell-based; conditions: HL-60, 48 h
M14 = assay: Antiproliferative activity against human M14 cells assessed as reduction cell viability incubated for 48 hrs by MTT assay; format: functional, cell-based; conditions: M14, 48 h
[19] = biological target: DNA (cytosine-5)-methyltransferase 3A (Homo sapiens, UniProt Q9Y6K1); assay: Inhibition of C-terminal biotin-labelled human DNMT3A by multilabel plate reader analysis
HT-1080 [20] = assay: Antiproliferative activity against human HT-1080 cells assessed as reduction cell viability incubated for 48 hrs by MTT assay; format: functional, cell-based; conditions: HT-1080, 48 h
HCT-116 [21] = assay: Antiproliferative activity against human HCT-116 cells assessed as reduction cell viability incubated for 48 hrs by MTT assay; format: functional, cell-based; conditions: HCT-116, 48 h
MCF7 [22] = assay: Antiproliferative activity against human MCF7 cells assessed as reduction cell viability incubated for 48 hrs by MTT assay; format: functional, cell-based; conditions: MCF7, 48 h

Protein deacetylase HDAC6, sequence (Q9UBN7 whole entry): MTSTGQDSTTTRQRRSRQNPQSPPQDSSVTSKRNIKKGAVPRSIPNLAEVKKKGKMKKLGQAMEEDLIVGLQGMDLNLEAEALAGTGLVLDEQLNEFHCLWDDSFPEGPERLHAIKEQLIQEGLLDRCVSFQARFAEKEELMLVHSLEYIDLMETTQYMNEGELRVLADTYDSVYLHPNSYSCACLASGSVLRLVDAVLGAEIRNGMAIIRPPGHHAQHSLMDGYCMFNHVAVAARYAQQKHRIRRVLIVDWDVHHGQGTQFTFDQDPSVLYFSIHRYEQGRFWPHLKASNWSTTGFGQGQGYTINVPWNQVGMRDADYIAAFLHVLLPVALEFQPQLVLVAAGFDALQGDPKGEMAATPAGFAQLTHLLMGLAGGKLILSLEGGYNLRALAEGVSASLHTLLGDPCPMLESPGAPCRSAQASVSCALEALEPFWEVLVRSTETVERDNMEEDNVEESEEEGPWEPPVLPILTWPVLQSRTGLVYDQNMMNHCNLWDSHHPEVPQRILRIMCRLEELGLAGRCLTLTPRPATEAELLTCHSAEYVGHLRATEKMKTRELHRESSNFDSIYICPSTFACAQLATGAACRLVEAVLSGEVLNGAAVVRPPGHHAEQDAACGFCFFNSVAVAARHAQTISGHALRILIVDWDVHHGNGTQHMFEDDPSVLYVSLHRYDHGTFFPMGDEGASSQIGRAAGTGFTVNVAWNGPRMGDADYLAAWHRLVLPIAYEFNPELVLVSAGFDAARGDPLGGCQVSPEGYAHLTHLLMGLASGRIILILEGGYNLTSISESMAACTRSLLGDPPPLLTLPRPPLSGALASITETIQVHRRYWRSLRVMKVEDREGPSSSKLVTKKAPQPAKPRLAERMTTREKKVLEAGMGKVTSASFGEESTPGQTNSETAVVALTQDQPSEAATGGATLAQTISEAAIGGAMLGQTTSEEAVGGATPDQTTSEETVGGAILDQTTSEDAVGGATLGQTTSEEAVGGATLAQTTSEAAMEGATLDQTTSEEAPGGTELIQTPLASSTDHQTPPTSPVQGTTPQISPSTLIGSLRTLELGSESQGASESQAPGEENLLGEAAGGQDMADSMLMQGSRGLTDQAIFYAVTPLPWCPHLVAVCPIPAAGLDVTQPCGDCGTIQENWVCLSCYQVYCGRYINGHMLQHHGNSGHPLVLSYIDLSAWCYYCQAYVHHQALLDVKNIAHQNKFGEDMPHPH
Hepatocyte growth factor receptor, sequence (P08581 whole entry): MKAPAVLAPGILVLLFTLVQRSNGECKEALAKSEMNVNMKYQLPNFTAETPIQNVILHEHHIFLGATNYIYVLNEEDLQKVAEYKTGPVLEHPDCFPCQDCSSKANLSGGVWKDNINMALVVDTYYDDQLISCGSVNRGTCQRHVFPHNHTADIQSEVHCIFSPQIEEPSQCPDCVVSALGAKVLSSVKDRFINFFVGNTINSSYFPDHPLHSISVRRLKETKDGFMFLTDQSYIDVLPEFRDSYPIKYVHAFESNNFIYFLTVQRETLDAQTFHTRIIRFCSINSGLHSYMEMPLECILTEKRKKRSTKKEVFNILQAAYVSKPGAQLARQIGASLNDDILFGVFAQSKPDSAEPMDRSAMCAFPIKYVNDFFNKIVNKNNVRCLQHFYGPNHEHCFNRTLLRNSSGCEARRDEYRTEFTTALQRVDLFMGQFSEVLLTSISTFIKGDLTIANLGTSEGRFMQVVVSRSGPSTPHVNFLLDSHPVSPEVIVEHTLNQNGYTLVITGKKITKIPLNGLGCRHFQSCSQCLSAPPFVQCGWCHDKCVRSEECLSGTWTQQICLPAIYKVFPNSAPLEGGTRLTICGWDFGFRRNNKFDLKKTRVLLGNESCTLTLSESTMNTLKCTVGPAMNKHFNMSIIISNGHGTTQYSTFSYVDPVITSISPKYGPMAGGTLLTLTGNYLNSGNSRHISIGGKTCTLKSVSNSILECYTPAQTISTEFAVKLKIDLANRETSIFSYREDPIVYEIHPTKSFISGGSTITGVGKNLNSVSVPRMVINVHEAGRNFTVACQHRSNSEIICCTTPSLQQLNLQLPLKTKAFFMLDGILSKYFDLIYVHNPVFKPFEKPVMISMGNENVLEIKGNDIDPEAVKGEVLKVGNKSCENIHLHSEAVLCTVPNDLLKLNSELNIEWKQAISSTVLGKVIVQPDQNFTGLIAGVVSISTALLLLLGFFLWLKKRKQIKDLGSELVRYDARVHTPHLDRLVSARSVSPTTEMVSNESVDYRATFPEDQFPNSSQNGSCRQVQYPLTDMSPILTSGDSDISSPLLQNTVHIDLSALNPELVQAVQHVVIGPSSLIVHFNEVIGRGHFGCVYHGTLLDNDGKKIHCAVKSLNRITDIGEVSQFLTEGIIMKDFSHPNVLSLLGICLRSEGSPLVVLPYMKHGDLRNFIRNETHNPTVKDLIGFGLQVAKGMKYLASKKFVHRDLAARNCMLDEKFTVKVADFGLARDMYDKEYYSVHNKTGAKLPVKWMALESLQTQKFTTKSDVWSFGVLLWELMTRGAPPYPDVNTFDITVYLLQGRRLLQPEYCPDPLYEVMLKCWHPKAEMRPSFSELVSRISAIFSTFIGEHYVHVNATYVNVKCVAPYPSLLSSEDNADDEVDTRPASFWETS
DNA (cytosine-5)-methyltransferase 3A, sequence (Q9Y6K1 whole entry, looked up): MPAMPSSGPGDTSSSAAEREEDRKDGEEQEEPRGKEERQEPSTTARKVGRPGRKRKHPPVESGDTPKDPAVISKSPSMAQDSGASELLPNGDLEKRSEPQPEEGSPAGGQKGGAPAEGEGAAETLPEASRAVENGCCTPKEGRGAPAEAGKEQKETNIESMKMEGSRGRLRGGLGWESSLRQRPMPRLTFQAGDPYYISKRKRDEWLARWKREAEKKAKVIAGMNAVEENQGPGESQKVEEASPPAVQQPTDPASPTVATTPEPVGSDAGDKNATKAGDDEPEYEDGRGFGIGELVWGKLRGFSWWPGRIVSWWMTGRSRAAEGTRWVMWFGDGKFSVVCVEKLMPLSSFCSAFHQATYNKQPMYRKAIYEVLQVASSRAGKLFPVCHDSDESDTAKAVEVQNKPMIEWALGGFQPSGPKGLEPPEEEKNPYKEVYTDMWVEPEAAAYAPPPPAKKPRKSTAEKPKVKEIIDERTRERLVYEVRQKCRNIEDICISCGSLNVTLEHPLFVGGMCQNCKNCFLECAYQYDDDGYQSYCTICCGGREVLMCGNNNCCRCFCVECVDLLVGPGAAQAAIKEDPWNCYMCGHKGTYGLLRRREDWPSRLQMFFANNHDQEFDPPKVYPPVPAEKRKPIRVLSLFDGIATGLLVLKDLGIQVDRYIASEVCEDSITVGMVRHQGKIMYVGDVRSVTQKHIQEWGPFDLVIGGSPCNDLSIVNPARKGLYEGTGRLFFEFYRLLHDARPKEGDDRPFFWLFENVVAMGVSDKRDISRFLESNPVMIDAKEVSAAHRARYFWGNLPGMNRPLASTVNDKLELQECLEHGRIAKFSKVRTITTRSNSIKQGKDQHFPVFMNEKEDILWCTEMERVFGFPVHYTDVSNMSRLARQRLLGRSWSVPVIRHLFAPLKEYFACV
Histone-lysine N-methyltransferase SMYD3, sequence (Q9H7B4 whole entry): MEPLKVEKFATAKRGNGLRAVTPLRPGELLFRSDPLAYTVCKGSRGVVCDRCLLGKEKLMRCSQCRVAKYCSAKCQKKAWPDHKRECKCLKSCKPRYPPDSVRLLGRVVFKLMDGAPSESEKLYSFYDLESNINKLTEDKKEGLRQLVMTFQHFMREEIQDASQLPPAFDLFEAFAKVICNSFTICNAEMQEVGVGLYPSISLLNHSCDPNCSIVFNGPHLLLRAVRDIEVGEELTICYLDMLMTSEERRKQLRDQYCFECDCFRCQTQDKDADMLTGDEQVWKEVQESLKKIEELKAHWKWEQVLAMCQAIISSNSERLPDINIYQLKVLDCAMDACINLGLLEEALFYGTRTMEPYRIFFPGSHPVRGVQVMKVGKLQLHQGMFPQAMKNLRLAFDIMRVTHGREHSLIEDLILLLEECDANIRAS

O=C(/C=C/c1cccc(S(=O)(=O)c2ccc3ccccc3n2)c1)NO
IC50 (RPMI-8226): 7490 nM
IC50 (A549 [1]): 270 nM
IC50 (NCI-H929): 9140 nM
IC50 (U-266): 40600 nM
IC50 [2]: 0.291 nM

CCN(CC)CCCNc1ccc2c(c1)[nH]c1c2c[n+](C)c2ccc(NCCCN(CC)CC)cc12
IC50 (MIA PaCa-2): 220 nM

CCCOC(=O)N1CCN(C(=O)c2ccc3c(Cl)c4c(nc3c2)CCC(CCN)C4)CC1 (centres undefined)
IC50 (A549 [1]): 11000 nM
IC50 (CFPAC-1): 11000 nM
IC50 (HepG2 [3]): 11000 nM
IC50 [4]: 40 nM
IC50 (HPAC): 11000 nM
IC50 (HCT-116 [5]): 11000 nM

C/C(=C\c1ccc(C(=O)NO)cc1)CNc1cnc2c(Br)cccc2c1
IC50 (Histone deacetylase): 28 nM
IC50 (HeLa [6]): 1800 nM

CCN(CC)CCNc1nc2c(Nc3ccccc3)c3ccccc3nc2s1
GI50 (K-562R): 15900 nM
GI50 (SW480): 15900 nM
GI50 (MCF7 [7]): 15900 nM
GI50 (HeLa [8]): 15900 nM
GI50 (C-33-A): 15900 nM
GI50 (SW-620): 15900 nM
GI50 [9]: 15900 nM

CC[C@@]1(O)C(=O)OCc2c1cc1n(c2=O)Cc2c-1nc1cc(F)c(OC)cc1c2C
IC50 (SK-MEL-28): 1.4 nM
IC50 [10]: 1.9 nM
IC50 (SK-MEL-5): 2.6 nM

O=C(Nc1cccc(Nc2ccnc3ccccc23)c1)c1cccc(Nc2ccnc3ccccc23)c1
IC50 (U-937): 1500 nM

COc1cc2c(Oc3ccc(NC(=O)C4CCN(c5ccc(F)cc5)C4=O)cc3)ccnc2cc1OCCCCCCC(=O)NO (centres undefined)
IC50 (A549 [11]): 1080 nM
IC50 [12]: 12.5 nM
IC50 (HCT-116 [13]): 0.54 nM

NCCCOc1cc(NC(=O)c2cc(Cl)cc(C(=O)Nc3cc(OCCCN)c4ccccc4n3)n2)nc2ccccc12
IC50 (HeLa [14]): 300 nM
IC50 (WI-38): 300 nM
IC50 (U2OS): 300 nM
IC50 (HT-1080 [15]): 300 nM

CCCCCCOc1ccc(/C=N/Nc2cc(C)nc3ccc(Cl)cc23)cc1
IC50 (MGC-803): 2200 nM
IC50 (HepG2 [16]): 4880 nM
IC50 (T-24): 3170 nM
IC50 (NCI-H460): 3220 nM

O=C(NO)c1ccc(CNc2cccc3cccnc23)cc1
IC50 (A549 [1]): 5330 nM
IC50 [2]: 2.73 nM
IC50 (PC-3): 3280 nM

O=C(Nc1ccc(Nc2ccnc3ccccc23)cc1)c1cccc(Nc2ccnc3ccccc23)c1
IC50 [17]: 27000 nM
IC50 (NCI-H1299): 5300 nM
IC50 (HeLa [18]): 2000 nM
IC50 (HL-60): 1600 nM
IC50 (M14): 4700 nM
IC50 [19]: 800 nM
IC50 (U-937): 700 nM
IC50 (HT-1080 [20]): 2700 nM
IC50 (HCT-116 [21]): 1500 nM
IC50 (MCF7 [22]): 300 nM
